Test results as given in ChEMBL document CHEMBL4831557, “Parthenolide Derivatives as PKM2 Activators Showing Potential in Colorectal Cancer” (J Med Chem, 2021).
Activity calls are given as the source filed them. The calls are words filed in the database; no cut-off is given here.

Columns and labels:
Pyruvate kinase PKM [1] = target: T1, Pyruvate kinase PKM (Homo sapiens, UniProt P14618); experiment: Activation of recombinant human PKM2 at 10 uM incubated 30 mins by fluorescence microplate reader analysis; settings: filed as activator
Target sequence in this assay (P14618 2-531 limits assumed): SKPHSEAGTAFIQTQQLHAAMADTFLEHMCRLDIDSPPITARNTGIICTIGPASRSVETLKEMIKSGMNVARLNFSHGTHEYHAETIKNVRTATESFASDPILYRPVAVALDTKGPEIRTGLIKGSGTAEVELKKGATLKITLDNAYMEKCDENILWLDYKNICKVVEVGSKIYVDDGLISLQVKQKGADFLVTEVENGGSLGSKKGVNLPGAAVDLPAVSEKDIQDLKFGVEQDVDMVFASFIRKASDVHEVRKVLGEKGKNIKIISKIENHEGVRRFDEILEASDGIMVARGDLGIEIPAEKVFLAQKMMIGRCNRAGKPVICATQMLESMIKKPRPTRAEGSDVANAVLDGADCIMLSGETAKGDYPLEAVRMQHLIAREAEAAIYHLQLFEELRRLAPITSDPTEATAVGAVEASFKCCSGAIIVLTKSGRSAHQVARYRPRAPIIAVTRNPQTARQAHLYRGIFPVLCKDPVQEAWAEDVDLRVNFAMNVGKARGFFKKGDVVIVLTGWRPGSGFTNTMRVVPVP

HT-29 [2] = experiment: Cytotoxicity against human HT-29 cells assessed as reduction in cell viability incubated for 48 hrs by MTT assay; assay type: functional, cell-based; settings: HT-29, 48 h
SW480 [3] = experiment: Cytotoxicity against human SW480 cells assessed as reduction in cell viability incubated for 48 hrs by MTT assay; assay type: functional, cell-based; settings: SW480, 48 h
HCT-116 = experiment: Cytotoxicity against human HCT-116 cells assessed as reduction in cell viability incubated for 48 hrs by MTT assay; assay type: functional, cell-based; settings: HCT-116, 48 h
HepG2 = experiment: Cytotoxicity against human HepG2 cells assessed as reduction in cell viability incubated for 48 hrs by MTT assay; assay type: functional, cell-based; settings: HepG2, 48 h
MDA-MB-231 = experiment: Cytotoxicity against human MDA-MB-231 cells assessed as reduction in cell viability incubated for 48 hrs by MTT assay; assay type: functional, cell-based; settings: MDA-MB-231, 48 h
NCM460 = experiment: Cytotoxicity against human NCM460 cells assessed as reduction in cell viability incubated for 48 hrs by MTT assay; assay type: cell-based; settings: NCM460, 48 h
[4] = Selectivity index, ratio of IC50 for human NCM460 cells to IC50 for human HT-29 cells; assay type: toxicity; settings: NCM460 cells versus HT-29 cells, read-out: Ratio IC50
Pyruvate kinase PKM [5] = target: T1, Pyruvate kinase PKM; experiment: Activation of recombinant human PKM2 incubated 30 mins by fluorescence microplate reader analysis
Target sequence in this assay (P14618 whole entry): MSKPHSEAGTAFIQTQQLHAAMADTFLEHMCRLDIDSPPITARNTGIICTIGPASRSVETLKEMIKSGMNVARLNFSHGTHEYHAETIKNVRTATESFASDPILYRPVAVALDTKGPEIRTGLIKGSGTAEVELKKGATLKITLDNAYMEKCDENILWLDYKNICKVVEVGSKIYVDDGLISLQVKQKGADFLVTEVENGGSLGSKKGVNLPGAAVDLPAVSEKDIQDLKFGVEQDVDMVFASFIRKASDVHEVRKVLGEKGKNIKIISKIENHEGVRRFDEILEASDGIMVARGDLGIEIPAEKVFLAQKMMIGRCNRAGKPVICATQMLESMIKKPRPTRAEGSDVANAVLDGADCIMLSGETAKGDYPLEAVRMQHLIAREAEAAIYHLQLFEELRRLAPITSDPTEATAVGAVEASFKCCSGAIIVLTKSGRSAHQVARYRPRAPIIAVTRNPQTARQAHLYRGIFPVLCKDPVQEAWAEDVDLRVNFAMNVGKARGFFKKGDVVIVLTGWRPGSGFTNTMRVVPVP

Pyruvate kinase PKM [6] = target: T1, Pyruvate kinase PKM; experiment: Binding affinity to recombinant human PKM2 assessed as covalent adduct formation incubated for 1 hr by LC-MS/MS analysis; settings: filed as activator
Target sequence in this assay (P14618 2-531 limits assumed): as the sequence (P14618 2-531 limits assumed) above

HT-29 [7] = experiment: Effect on total PKM2 protein expression in nucleus of human HT-29 cells at 0.45 to 1.8 uM after 48 hrs by Western blot analysis; assay type: functional, cell-based; settings: dose 0.45-1.8 µM
HT-29 [8] = experiment: Effect on total PKM2 protein expression in cytoplasm of human HT-29 cells at 0.45 to 1.8 uM after 48 hrs by Western blot analysis; assay type: functional, cell-based; settings: dose 0.45-1.8 µM
Pyruvate kinase PKM [9] = target: T1, Pyruvate kinase PKM; experiment: Inhibition of PKM2 dimer nuclear translocation in human HT-29 cells by immunostaining based analysis; assay type: cell-based
Target sequence in this assay (P14618 2-531 limits assumed): as above

Pyruvate kinase PKM [10] = target: T1, Pyruvate kinase PKM; experiment: Activation of PKM2 in human HT-29 cells assessed as increase in PKM2 tetramer formation at 0.6 to 1.2 uM after 48 hrs by Western blot analysis; assay type: cell-based; settings: filed as activator, dose 0.6-1.2 µM
Target sequence in this assay (P14618 2-531 limits assumed): as above

Pyruvate kinase PKM [11] = target: T1, Pyruvate kinase PKM; experiment: Activation of PKM2 in human HT-29 cells assessed as increase in PKM2 tetramer formation by dynamic laser light scattering analysis; assay type: cell-based; settings: filed as activator
Target sequence in this assay (P14618 2-531 limits assumed): as above

Pyruvate kinase PKM [12] = target: T1, Pyruvate kinase PKM; experiment: Activation of PKM2 in human HT-29 cells assessed as increase in cell basal respiration; assay type: cell-based; settings: filed as activator
Target sequence in this assay (P14618 2-531 limits assumed): as above

Pyruvate kinase PKM [13] = target: T1, Pyruvate kinase PKM; experiment: Activation of PKM2 in human HT-29 cells assessed as decrease in extracellular acidification rate; assay type: cell-based; settings: filed as activator
Pyruvate kinase PKM [14] = target: T1, Pyruvate kinase PKM; experiment: Activation of PKM2 in human HT-29 cells assessed as decrease in lactic acid production; assay type: cell-based; settings: filed as activator
HT-29 [15] = experiment: Inhibition of colony formation in human HT-29 cells incubated for 14 days by crystal violet staining based analysis; assay type: functional, cell-based; settings: dose 0.15-0.3 µM, time 14.0 day
HT-29 [16] = experiment: Induction of apoptosis in human HT-29 cells after 48 hrs by Annexin V-PE and 7-AAD staining based flow cytometric analysis; assay type: functional, cell-based; settings: dose 0.45-1.8 µM
SW480 [17] = experiment: Induction of apoptosis in human SW480 cells after 48 hrs by Annexin V-PE and 7-AAD staining based flow cytometric analysis; assay type: functional, cell-based; settings: dose 0.2-0.8 µM
SW480 [18] = experiment: Antiproliferative activity against human SW480 cells at 0.1 to 0.4 uM measured after 48 hrs by EdU staining based confocal microscopic analysis; assay type: functional, cell-based; settings: dose 0.1-0.4 µM
HT-29 [19] = experiment: Induction of intracellular ROS production in human HT-29 cells at 0.45 to 1.8 uM incubated for 48 hrs by DCFH-DA staining based flow cytometry analysis; assay type: functional, cell-based; settings: dose 0.45-1.8 µM
SW480 [20] = experiment: Induction of intracellular ROS production in human SW480 cells at 0.2 to 0.6 uM incubated for 48 hrs by DCFH-DA staining based flow cytometry analysis; assay type: functional, cell-based; settings: dose 0.2-0.6 µM
HT-29 [21] = experiment: Effect on mitochondrial membrane potential in human HT-29 cells at 0.45 to 1.8 uM measured after 48 hrs by JC-1 staining based assay; assay type: functional, cell-based; settings: dose 0.45-1.8 µM
SW480 [22] = experiment: Effect on mitochondrial membrane potential in human SW480 cells at 0.2 to 0.6 uM measured after 48 hrs by JC-1 staining based assay; assay type: functional, cell-based; settings: dose 0.2-0.6 µM
HT-29 [23] = experiment: Induction of apoptosis in human HT-29 cells assessed as decrease in caspase-3 expression at 0.45 to 1.8 uM after 48 hrs by Western blotting analysis; assay type: functional, cell-based; settings: dose 0.45-1.8 µM
HT-29 [24] = experiment: Induction of apoptosis in human HT-29 cells assessed as decrease in PARP expression at 0.45 to 1.8 uM after 48 hrs by Western blotting analysis; assay type: functional, cell-based; settings: dose 0.45-1.8 µM
HT-29 [25] = experiment: Induction of apoptosis in human HT-29 cells assessed as increase in cleaved caspase-3 expression at 0.45 to 1.8 uM after 48 hrs by Western blotting analysis; assay type: functional, cell-based; settings: dose 0.45-1.8 µM
HT-29 [26] = experiment: Induction of cell cycle arrest in human HT-29 cells assessed as accumulation of cells at G2/M phase after 48 hrs by PI staining based flow cytometric analysis; assay type: functional; settings: dose 0.45-1.8 µM
SW480 [27] = experiment: Induction of cell cycle arrest in human […] cells assessed as accumulation of cells at G2/M phase after 48 hrs by PI staining based flow cytometric analysis; assay type: functional; settings: dose 0.2-0.6 µM
SW480 [28] = experiment: Antimigratory activity against human SW480 cells; assay type: functional, cell-based
HT-29 [29] = experiment: Inhibition of epithelial-mesenchymal transition in human HT-29 cells assessed as change in E-cadherin expression; assay type: functional, cell-based
HT-29 [30] = experiment: Inhibition of epithelial-mesenchymal transition in human HT-29 cells assessed as change in Snail-2 expression; assay type: functional, cell-based
Pyruvate kinase PKM [31] = target: T1, Pyruvate kinase PKM; experiment: Inhibition of PKM2/STAT3 in human HT-29 cells assessed as decrease in total STAT3 level at 0.45 to 1.8 uM after 48 hrs by Western blot analysis; assay type: cell-based; settings: dose 0.45-1.8 µM
Pyruvate kinase PKM [32] = target: T1, Pyruvate kinase PKM; experiment: Inhibition of PKM2/STAT3 in human HT-29 cells assessed as increase in bax protein expression at 0.45 to 1.8 uM incubated for 48 hrs by Western blot analysis; assay type: cell-based; settings: dose 0.45-1.8 µM
Pyruvate kinase PKM [33] = target: T1, Pyruvate kinase PKM; experiment: Inhibition of PKM2/STAT3 in human HT-29 cells assessed as reduction in bcl-xl protein expression at 0.45 to 1.8 uM incubated for 48 hrs by Western blot analysis; assay type: cell-based; settings: dose 0.45-1.8 µM
Pyruvate kinase PKM [34] = target: T1, Pyruvate kinase PKM; experiment: Inhibition of PKM2/STAT3 in human HT-29 cells assessed as reduction in C-myc protein expression at 0.45 to 1.8 uM incubated for 48 hrs by Western blot analysis; assay type: cell-based; settings: dose 0.45-1.8 µM
Pyruvate kinase PKM [35] = target: Pyruvate kinase PKM (Homo sapiens, UniProt P14618, C424A); experiment: Activation of human PKM2-C424A expressed in Escherichia coli BL21 (DE3)
Chain of Pyruvate kinase PKM (Homo sapiens, UniProt P14618, C424A) (P14618 2-531 C424A limits assumed): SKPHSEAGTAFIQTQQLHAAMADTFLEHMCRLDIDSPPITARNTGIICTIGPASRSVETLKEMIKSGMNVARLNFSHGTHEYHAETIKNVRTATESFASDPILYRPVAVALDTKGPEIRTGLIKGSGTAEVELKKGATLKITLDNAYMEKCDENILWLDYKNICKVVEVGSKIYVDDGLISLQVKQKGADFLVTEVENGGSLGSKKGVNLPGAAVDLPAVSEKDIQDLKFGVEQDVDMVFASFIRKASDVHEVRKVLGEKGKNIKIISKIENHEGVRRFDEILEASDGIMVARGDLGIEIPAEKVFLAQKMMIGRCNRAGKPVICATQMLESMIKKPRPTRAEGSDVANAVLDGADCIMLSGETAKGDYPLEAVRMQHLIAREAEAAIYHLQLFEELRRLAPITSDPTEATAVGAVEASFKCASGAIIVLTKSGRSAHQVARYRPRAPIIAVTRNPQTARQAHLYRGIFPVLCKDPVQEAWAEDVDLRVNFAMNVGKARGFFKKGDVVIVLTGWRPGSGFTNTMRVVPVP

Pyruvate kinase PKM [36] = target: T1, Pyruvate kinase PKM; experiment: Activation of human PKM2-C424A expressed in Escherichia coli BL21 (DE3) assessed as increase in PKM2-C424A tetramer formation by chemical cross-linking assay
HT-29 [37] = experiment: Antitumor activity against human HT-29 cells xenografted in BALB/c mouse assessed as reduction in tumor growth at 15 to 30 mg/kg, ip administered once every 2 days for 2 weeks by vernier caliper method; assay type: functional, organism-based; settings: dose 15-30 mg/kg

For `C=C1C(=O)O[C@H]2[C@H]1CC/C(COC(=O)c1ccc3nccc(Br)c3c1)=C/CC[C@@]1(C)O[C@@H]21`, the Activity (Pyruvate kinase PKM [1]) was “Active”, the IC50 (HT-29 [2]) was 660 nM and the IC50 (SW480 [3]) was 220 nM. The IC50 (HCT-116) was 1000 nM, the IC50 (HepG2) was 3900 nM and the IC50 (MDA-MB-231) was 1030 nM. It also gave an IC50 (NCM460) of 2020 nM, a selectivity ratio [4] of 3.06 and an AC50 (Pyruvate kinase PKM [5]) of 86.3 nM. For the same compound, the Activity (Pyruvate kinase PKM [6]) was “Active”, the Activity (HT-29 [7]) was “Active” and the Activity (HT-29 [8]) was “inactive”. For the same compound, the inhibition (Pyruvate kinase PKM [9]) was “Active”, the Activity (Pyruvate kinase PKM [10]) was “Active” and the Activity (Pyruvate kinase PKM [11]) was “Active”. For the same compound, the Activity (Pyruvate kinase PKM [12]) was “Active”, the Activity (Pyruvate kinase PKM [13]) was “Active” and the Activity (Pyruvate kinase PKM [14]) was “Active”. The inhibition (HT-29 [15]) was “Dose-Dependent Effect”, the Activity (HT-29 [16]) was “Dose-Dependent Effect” and the Activity (SW480 [17]) was “Dose-Dependent Effect”. The Activity (SW480 [18]) was “Active”, the Activity (HT-29 [19]) was “Active” and the Activity (SW480 [20]) was “Active”. The Activity (HT-29 [21]) was “Active”, the Activity (SW480 [22]) was “Active” and the Activity (HT-29 [23]) was “Active”. The Activity (HT-29 [24]) was “Active”, the Activity (HT-29 [25]) was “Active” and the Activity (HT-29 [26]) was “Dose-Dependent Effect”. The Activity (SW480 [27]) was “Dose-Dependent Effect”, the Activity (SW480 [28]) was “Active” and the inhibition (HT-29 [29]) was “inactive”. For the same compound, the inhibition (HT-29 [30]) was “inactive”, the inhibition (Pyruvate kinase PKM [31]) was “Active” and the inhibition (Pyruvate kinase PKM [32]) was “Active”. The inhibition (Pyruvate kinase PKM [33]) was “Active”, the inhibition (Pyruvate kinase PKM [34]) was “Active” and the AC50 (Pyruvate kinase PKM [35]) was 100 nM. For the same compound, the Activity (Pyruvate kinase PKM [36]) was “inactive” and the Activity (HT-29 [37]) was “Active”.
